Measured values as given in US20210228549A1 (Biohaven Therapeutics Ltd., priority 2015, published 2021).
Like-named read-outs stand apart in the source and are kept apart here.

What was measured:
[1] = PK in fasted male Sprague Dawley rats, PO administration of prodrug; format: in vivo; conditions: for Prodrug AUGlast, Mean: PO 5 mg/kg
Description: (§1) Blood samples were collected at pre-determined time points including a 0 h time point and usually between 7 and 8 additional time points not exceeding a 24 h period.
(§2) Plasma samples were extracted and analyzed using the methods described in Plasma Sample Extraction and Analysis. All data are expressed as ng/mL of the free base. Samples that were below the limit of quantification (0.5 ng/mL) were not used in the calculation of averages.
(§3) Pharmacokinetic parameters were calculated from the time course of the plasma concentrations. Pharmacokinetic parameters were determined with Phoenix Winnonlin (v6.3) software using a non-compartmental model. The maximum plasma concentration (Cmax) and time to the maximum plasma concentration (Tmax) of the compound of the disclosure were observed from the data. The area under the concentration-time curve (AUC) of the compound of the disclosure was calculated using the trapezoidal formula with calculation to the last quantifiable data point, and to infinity if applicable. Plasma half-life (t1/2) was calculated from 0.693/slope of the terminal elimination phase. Mean residence time, MRT, was calculated by dividing the area under the moment curve (AUMC) by the AUC. Any samples below the limit of quantitation (0.5 ng/mL) were treated as zero for pharmacokinetic data analysis.
Plasma Sample Extraction and Analysis: Analytical stock solutions (1.00 mg/mL of the free compound of the disclosure) were prepared in DMSO. Standards were prepared in diluted matrix containing 1 part 10% formic acid and 9 parts Sprague-Dawley rat plasma containing sodium heparin as the anticoagulant (pre-diluted with 1 part of 0.5M citric acid and 9 parts whole blood). Working solutions were prepared in 50:50 acetonitrile:water. Working solutions were then added to plasma to make calibration standards to final concentrations of 1000, 500, 100, 50, 10, 5, 1, and 0.5 ng/mL. Standards contained both the test article and riluzole. Standards were treated identically to the study samples.
Sample Extraction: Plasma samples were extracted via acetonitrile precipitation on a Tomtec Quadra 96-Model 320 liquid handling system in a 96-well plate format.

[2] = tested on: patients diagnosed with Alzheimer's disease of mild-to-moderate severity; conditions: for CDR01-Sum of Boxes, Model Estimates, Difference LSMean (SE) / ADAS-Cog Total Score, Model Estimates, Difference LSMean (SE) / Hippocampal Volume Change, Model Estimates, Difference LSMean (SE): placebo vs troriluzole; for Hippocampal Volume Change, Model Estimates, LSMean (SE) / Hippocampal Volume Change, Model Estimates, Difference LSMean (SE) / Hippocampal Volume Change, Analysis Value, Mean (SD) / Hippocampal Volume Change, Analysis Value, Median: volumetric MRI;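 as to all read-outs here: multicenter parallel-group study, AD severity graded by Mini-Mental State Examination score (mild 20–24, moderate 14–19)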
Description: This is a phase 2 multi-center, randomized, double blind, placebo-controlled, parallel group study in patients with mild to moderate Alzheimer's disease.
Participants will be randomized to one of two groups: 280 mg of BHV-4157 or placebo. […] Treatment duration is 48 weeks (12 months). There is a screening period of up to 42 days and a 4-week post-treatment observation period.
The CDR-SOB (Hughes, Berg, Danziger, Coben, & Martin, 1982) is a validated composite rating of cognition and everyday functioning used in longitudinal AD research which incorporates both informant input and direct assessment of performance. It assesses through semi structured interview 3 cognitive domains including memory, orientation, and judgement/problem solving and 3 everyday functional domains including community affairs, home and hobbies and personal care. There are 5 levels of impairment from none CDR=0 to severe CDR=3. The individual domain scores are added to create a sum of the box scores.

[3] = tested on: patients with Stage III and IV melanoma; conditions: after only 14 days of treatment, cited from earlier work
[4] = PK in fasted male Sprague Dawley rats, IV administration of prodrug; format: in vivo
Description: as §1, §2
as §3, with “analysis. […]” for “analysis.”

Melanoma C8161 cells = test: Inhibition of human melanoma cell xenograft growth; format: in vivo; conditions: C8161 xenograft in nude mice, P<0.01
Description: Mice were treated every day for 21 days, and tumor sizes were measured twice weekly with a Vernier caliper.

[5] = fasted male Sprague Dawley rats, prodrug in plasma
[6] = Mild AD Patients Only, Week 48, troriluzole 280 mg once daily, N 62
[7] = Mild AD Patients Only, Week 48, troriluzole 280 mg once daily, N 65
[8] = mild-to-moderate AD, Week 48, troriluzole 280 mg once daily, N 118
[9] = mild-to-moderate AD, Week 48, troriluzole 280 mg once daily, N 119
[10] = Mild AD Patients Only, Week 48, troriluzole 280 mg once daily, N 48
[11] = mild-to-moderate AD, Week 48, troriluzole 280 mg once daily, N 87

In the case of CN(CC(=O)Nc1nc2ccc(OC(F)(F)F)cc2s1)C(=O)CNC1CCNCC1 [Example 216, N-methyl-2-[(piperidin-4-yl)amino]-N-({[6-(trifluoromethoxy)-1,3-benzothiazol-2-yl]carbamoyl}methyl)acetamide], the “Prodrug AUGlast, Mean” value [1, 5] is reported as 16.6 ng·h/mL.
For CN(CC(=O)Nc1nc2ccc(OC(F)(F)F)cc2s1)C(=O)CNC(=O)CN [Example 204, 2-Amino-N-{[methyl({[6-(trifluoromethoxy)-1,3-benzothiazol-2-yl]carbamoyl}methyl)carbamoyl]methyl}acetamide], the “Prodrug AUGlast, Mean” value [1, 5] was 0.90 ng·h/mL, the Safety and tolerability ([2]; 280 mg once daily, safety profile consistent with previous studies) was “relatively well tolerated” and the “CDR01-Sum of Boxes, Model Estimates, LSMean (SE)” value ([2]; Mild AD Patients Only, Week 48, change from baseline, 95% CI (1.1, 2.2)) was 1.7 (0.29). The “ADAS-Cog Total Score, Model Estimates, LSMean (SE)” value ([2]; Mild AD Patients Only, Week 48, change from baseline, 95% CI (2.7, 5.7)) was 4.2 (0.76), the “CDR01-Sum of Boxes, Model Estimates, Difference LSMean (SE)” value ([2]; Mild AD Patients Only, Week 48, 95% CI (−1.1, 0.5), P-Value 0.4347) was −0.3 (0.40) and the “ADAS-Cog Total Score, Model Estimates, Difference LSMean (SE)” value ([2]; Mild AD Patients Only, Week 48, 95% CI (−1.4, 2.7)) was 0.7 (1.02). For the same compound, the “CDR01-Sum of Boxes, Analysis Value, Mean (SD)” value [2, 6] was 7.1 (2.79), the “CDR01-Sum of Boxes, Analysis Value, Median” value [2, 6] was 6.5 and the “CDR01-Sum of Boxes, Change from Baseline, Mean (SD)” value [2, 6] was 1.4 (2.06). The “CDR01-Sum of Boxes, Change from Baseline, Median” value [2, 6] was 1.0, the “ADAS-Cog Total Score, Analysis Value, Mean (SD)” value [2, 7] was 26.2 (8.22) and the “ADAS-Cog Total Score, Analysis Value, Median” value [2, 7] was 26.0. The “ADAS-Cog Total Score, Change from Baseline, Mean (SD)” value [2, 7] was 3.9 (5.90), the “ADAS-Cog Total Score, Change from Baseline, Median” value [2, 7] was 4.0 and the NPI across subgroups ([2]; Week 48, only mild AD, only moderate AD, only ApoE4 positive, only ApoE4 negative patients) was “numerical differences of a potential benefit”. For the same compound, the “ADAS-Cog11 score, difference placebo vs troriluzole” value ([2]; mild AD, after 48 weeks, 95% CI −1.4, 2.7, p-value=0.5233) was 0.7, the “LS mean percent deformation change from baseline hippocampal volume” value ([2]; mild AD, after 48 weeks, n=48, 95% CI −1.6, −0.6, placebo −1.6%) was −1.1% and the “LS mean change from baseline on the NPI score” value ([2]; mild AD, after 48 weeks, n=62, placebo 4.2 points) was 2.1 points. The “LS mean change from baseline on the ADAS-Cog11 score” value ([2]; mild AD, after 48 weeks, n=65, 95% CI 2.7, 5.7, placebo 4.9 points) was 4.2 points, the “CDR01-Sum of Boxes, Model Estimates, LSMean (SE)” value ([2]; mild-to-moderate AD, Week 48, change from baseline, 95% CI (1.7, 2.5)) was 2.1 (0.21) and the “CDR01-Sum of Boxes, Model Estimates, Difference LSMean (SE)” value ([2]; mild-to-moderate AD, Week 48, 95% CI (−0.8, 0.3), P-Value 0.4474) was −0.2 (0.28). The “ADAS-Cog Total Score, Model Estimates, Difference LSMean (SE)” value ([2]; mild-to-moderate AD, Week 48, 95% CI (−1.8, 1.8), P-Value 0.9809) was 0.0 (0.93), the “CDR01-Sum of Boxes, Analysis Value, Mean (SD)” value [2, 8] was 8.3 (3.24) and the “CDR01-Sum of Boxes, Analysis Value, Median” value [2, 8] was 8.0. For the same compound, the “CDR01-Sum of Boxes, Change from Baseline, Mean (SD)” value [2, 8] was 1.9 (2.37), the “CDR01-Sum of Boxes, Change from Baseline, Median” value [2, 8] was 2.0 and the “ADAS-Cog Total Score, Analysis Value, Mean (SD)” value [2, 9] was 31.5 (10.82). The “ADAS-Cog Total Score, Analysis Value, Median” value [2, 9] was 30.0, the “ADAS-Cog Total Score, Charge from Baseline, Mean (SD)” value [2, 9] was 0.8 (7.40) and the “ADAS-Cog Total Score, Charge from Baseline, Median” value [2, 9] was 0.0. For the same compound, the “NPI score, difference troriluzole vs placebo” value ([2]; mild-to-moderate AD, after 48 weeks, 95% CI −4.08, 1.10, p-value=0.258) was −1.5, the “LS mean change from baseline on the NPI score” value ([2]; mild-to-moderate AD, after 48 weeks, n=120, placebo 3.8 points) was 2.3 points and the “Hippocampal Volume Change, Model Estimates, LSMean (SE)” value ([2]; Mild AD Patients Only, Week 48, 95% CI (−1.6, −0.6)) was −1.1 (0.27). The “Hippocampal Volume Change, Model Estimates, Difference LSMean (SE)” value ([2]; Mild AD Patients Only, Week 48, 95% CI (−1.2, 0.3), P-Value 0.2240) was −0.5 (0.38), the “Hippocampal Volume Change, Analysis Value, Mean (SD)” value [2, 10] was −1.1 (1.61) and the “Hippocampal Volume Change, Analysis Value, Median” value [2, 10] was −0.9. The “Hippocampal Volume Change, Model Estimates, LSMean (SE)” value ([2]; mild-to-moderate AD, Week 48, 95% CI (−1.4, −0.7)) was −1.1 (0.18), the “Hippocampal Volume Change, Model Estimates, Difference LSMean (SE)” value ([2]; mild-to-moderate AD, Week 48, 95% CI (−0.6, 0.5), P-Value 0.8670) was 0.0 (0.26) and the “Hippocampal Volume Change, Analysis Value, Mean (SD)” value [2, 11] was −1.1 (1.50). The “Hippocampal Volume Change, Analysis Value, Median” value [2, 11] was −0.9.
For Nc1nc2ccc(OC(F)(F)F)cc2s1 [riluzole], the “Patients with clinical or radiologic evidence of tumor response” value ([3]; listed as Riluzole) is listed as “four of 12” and the “Patients with clinical or radiologic evidence of tumor response” value [3] is listed as “four of twelve”.
In the case of CN(CC(=O)Nc1nc2ccc(OC(F)(F)F)cc2s1)C(=O)CNC(C)(C)C [Example 125, 2-(tert-butylamino)-N-methyl-N-(2-oxo-2-((6-(trifluoromethoxy)benzo[d]thiazol-2-yl)amino)ethyl)acetamide], the “Half life on conversion to Riluzole” value [4] is reported as “moderate to long half life”, the bioavailability ([1]; rat, plasma, fasted male Sprague Dawley rats, PO 14 mg/kg, prodrug, read-out: Example 125 % F (bioavailability)) is reported as 26% and the AUC(0-inf) ([1]; rat, fasted male Sprague Dawley rats, PO 14 mg/kg, prodrug in plasma, read-out: Example 125 AUCinf, Mean) is reported as 2290 ng·h/mL. It also gave an AUC(0-t) ([1]; rat, fasted male Sprague Dawley rats, PO 14 mg/kg, prodrug in plasma, read-out: Example 125 AUClast, Mean) of 2260 ng·h/mL, a Cmax ([1]; rat, fasted male Sprague Dawley rats, PO 14 mg/kg, prodrug in plasma, read-out: Example 125 Cmax, Mean) of 213 ng/mL and a half-life ([1]; rat, fasted male Sprague Dawley rats, PO 14 mg/kg, prodrug in plasma, read-out: Example 125 t1/2, Mean (converted)) of 3.8 h. For the same compound, the Tmax ([1]; rat, fasted male Sprague Dawley rats, PO 14 mg/kg, prodrug in plasma, read-out: Example 125 tmax, Mean) was 1.8 h, the “Half life on conversion to Riluzole” value ([1]; rats, oral administration) was “long half life” and the “Oral bioavailability on conversion to Riluzole” value ([1]; rats, oral administration) was “high oral bioavailability”. For the same compound, the “Tumor volume vs untreated or vehicle-treated controls” value (Melanoma C8161 cells; 4.9 mg/kg (threefold lower in molar terms) p.o. gavage every day for 21 days) was “significant reduction in tumor volume” and the “Tumor volume vs untreated or vehicle-treated controls” value (Melanoma C8161 cells; 14.6 mg/kg (equimolar to riluzole) p.o. gavage every day for 21 days) was “significant reduction in tumor volume”.
